In patent US4963541A, “Pyrimido-pyrimidine lipoxygenase inhibiting compounds” (Abbott Laboratories, priority 1989, dated 1990):

How the values were obtained:
[1] = Drugs of the Future, 8, 1023, 1983; cited from earlier work
tumor cell growth = conditions: in rats; Ger. Offen. 2931, 573; cited from earlier work
5-lipoxygenase [2] = biological target: T1, 5-lipoxygenase (Rattus norvegicus, UniProt P12527); test: Inhibition of 5-lipoxygenase activity (20,000x g supernatant from homogenized RBL-1 cells); format: biochemical; conditions: In vitro, 20,000x g supernatant from homogenized RBL-1 cells
T1 construct: 20,000x g supernatant from homogenized RBL-1 cells; endogenous in cells; host or cells: RBL-1 cells (20,000x g supernatant of homogenate)
T1 sequence (P12527 1-673): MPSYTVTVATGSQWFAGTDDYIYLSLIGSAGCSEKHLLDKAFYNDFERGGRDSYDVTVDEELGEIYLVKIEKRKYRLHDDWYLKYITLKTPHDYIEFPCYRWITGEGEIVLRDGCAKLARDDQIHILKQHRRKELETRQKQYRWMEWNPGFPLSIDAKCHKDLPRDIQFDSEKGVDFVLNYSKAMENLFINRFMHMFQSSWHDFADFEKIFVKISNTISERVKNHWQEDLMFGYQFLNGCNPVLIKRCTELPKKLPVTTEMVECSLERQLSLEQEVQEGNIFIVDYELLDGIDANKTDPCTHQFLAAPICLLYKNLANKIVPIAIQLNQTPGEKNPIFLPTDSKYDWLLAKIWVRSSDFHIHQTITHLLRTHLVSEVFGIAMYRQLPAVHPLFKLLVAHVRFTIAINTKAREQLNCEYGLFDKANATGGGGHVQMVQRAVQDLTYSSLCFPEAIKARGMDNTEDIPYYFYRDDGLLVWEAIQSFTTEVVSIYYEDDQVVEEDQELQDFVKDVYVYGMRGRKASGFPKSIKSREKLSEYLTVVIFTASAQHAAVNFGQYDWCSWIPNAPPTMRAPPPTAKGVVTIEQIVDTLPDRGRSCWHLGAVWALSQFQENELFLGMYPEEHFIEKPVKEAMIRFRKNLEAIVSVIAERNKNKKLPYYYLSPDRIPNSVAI
Experimental: Inhibition of 5-lipoxygenase activity was determined using the 20,000x g supernatant from homogenized RBL-1 cells in a similar manner as that described by Dyer and coworkers (Dyer, R.D.; Haviv, F,; Hanel, A. M.; Bornemier, D. A.; Carter, G. W. Fed. Proc., Fed. Am. Soc. Exp. Biol. 1984, 43, 1462A). IC50 values (concentration of compound producing 50% enzyme inhibition) were calculated by linear regression analysis of percentage inhibition versus log inhibitor concentration plots.

5-lipoxygenase [3] = conditions: Young, Dyer, Carter, Federation Proceedings 44(4):904, 1985; cited from earlier work

SMILES	IC50 (5-lipoxygenase [2])	further results
CCN(CC)c1nc(N(CCO)CCOC)nc2c(N(CC)CC)nc(N(CCO)CCOC)nc12 [2,6-bis-(2-hydroxyethyl-2-methoxyethylamino)-4,8-bis-(diethylamino)pyrimido[5,4-d]pyrimidine]	–	reported to be a hypertensive agent [1]: hypertensive agent
OCCN(CCO)c1nc(N2CCCCC2)c2nc(N(CCO)CCO)ncc2n1 [2,6-bis-(diethanolamino)-4-piperidinopyrimido[5,4d]pyridimine]	–	inhibit tumor cell growth (tumor cell growth): shown to inhibit tumor cell growth in rats
CN(CCO)c1nc(N2CCCCC2)c2nc(N(C)CCO)nc(N3CCCCC3)c2n1 [Example 1, 2,6-bis-2-(Methylamino)ethanol-4,8-bis-N-piperidinopyrimido[5,4-d]pyrimidine]	0.34 µM	–
OCCNc1nc(N2CCCCC2)c2nc(NCCO)nc(N3CCCCC3)c2n1 [Example 2, 2,6-bis-Aminoethanol-4,8-bis-N-piperidinopyrimido[5,4-d]pyrimidine]	2.9 µM	–
CN(CCO)c1nc(N2CCCCCC2)c2nc(N(C)CCO)nc(N3CCCCCC3)c2n1 [Example 3, 2,6-bis-2-(Methylamino)ethanol-4,8-bis-N-perhydroazepinepyrimido-[5,4-d]pyrimidine]	0.3 µM	–
CN(CCO)c1nc(N2CCCCCCC2)c2nc(N(C)CCO)nc(N3CCCCCCC3)c2n1 [Example 4, 2,6-bis-2-(Methylamino)ethanol-4,8-bis-N-perhydroazocinepyrimido[5,4-d]pyrimidine]	0.92 µM	–
OCCN(CCO)c1nc(N2CCCCC2)c2nc(N(CCO)CCO)nc(N3CCCCC3)c2n1 [dipyridamole, 2,6-bis-(diethanolamino)-4,8-dipiperidinopyrimido[5,4-d]pyrimidine]	–	reported to be an inhibitor of 5-lipoxygenase (5-lipoxygenase [3]): inhibitor of 5-lipoxygenase
